From paper PMC9221546, “New Phenylglycinamide Derivatives with Hybrid Structure as Candidates for New Broad-Spectrum Anticonvulsants” (Cells, 2022)
Read-outs that look alike come from different tables or passages of the source. Marks after values point to notes of the source that are not given here.

What was measured:
mice [1] = assay: Capsaicin-induced hypothermia model / core body temperature; type: in vivo; details: compound 60 50 mg/kg, BCTC 20 mg/kg
Description: Capsaicin was dissolved in 1% DMSO and administered at a dose of 5 mg/kg at a time point 0 min. Compound 60 and BCTC (positive control) were suspended in 1% Tween 80 and administered 15 min before capsaicin (at time point -15 min). All compounds were injected i.p. at a constant volume of 10 mL/kg. Control animals received the respective vehicles (1% DMSO or 1% Tween 80). Changes in the rectal temperature were measured using an electronic thermometer (ThermoWorks, Alpine, UT, USA) by inserting the rectal probe to a depth of ~2 cm into the rectum of the mouse. The measurements were taken at −15, 0, 15, 30, 60, 90, 120, and 180 min. The differences in the rectal temperature from baseline (time -15 min for groups receiving compound 60 and BCTC in combination with vehicle or time 0 min for groups receiving vehicle and capsaicin or compound 60 and BCTC in combination with capsaicin) to the respective time point ΔT (°C) were then calculated and analyzed. The results are shown in Figure 4 (see Section 3 Results and Discussion).
Figure 4 Effects of compound 60 and BCTC alone (A) or in combination with capsaicin (B) on the core body temperature in mice. Capsaicin (CPS) was injected at 0 min, as indicated by the arrow. Compound 60 or BCTC were administered 15 min prior to CPS injection. The temperature was measured at −15, 0, 15, 30, 60, 90, 120, and 180 min. Since body temperature returned to control values 60 min after CPS injection, subsequent measurements are not shown. Control animals received vehicles (1% DMSO or 1% Tween 80). All the compounds were administered i.p. Each experimental group consisted of seven to eight animals. The data are presented as the mean differences (ΔT) in rectal temperature from baseline (time −15 for A and time 0 for B) to the respective time point. The data were analyzed with one-way ANOVA followed by Tukey’s post hoc test. ** p < 0.01, *** p < 0.001, **** p < 0.0001 vs. the control group; ^#### p < 0.0001 vs. the CPS-treated group.

[2] = tested on: 6 Hz (32 mA) seizures in mice; details: i.p., pretreatment 0.5 h (LEV 1.0 h); cited from earlier work
[3] = tested on: 6 Hz (32 mA) seizures in mice; assay: 6 Hz (32 mA) psychomotor seizure model; type: in vivo; details: for responders at 100 mg/kg / ED50: Mus musculus, ip; for ED50: mice, pretreatment time 0.5 h, (95% confidence limits)
Description: (§1) Adult male Albino Swiss mice that weighed between 22 and 26 g were used in the in vivo studies. They were housed under standardized housing conditions in colony cages and had free access to food as well as tap water. The animals were left to adapt under laboratory conditions for 7 days. All procedures involving animals and their care were performed in accordance with the current European Community and Polish legislation on animal experimentation.
(§2) In the initial screening studies, four mice per group were randomly assigned to each experimental group (each mouse was used only once). To evaluate the ED50 or TD50 values, 3–4 groups that consisted of eight animals were injected with various doses of tested compounds. The protective indexes (PIs) for the compounds that were investigated and reference ASDs were calculated by dividing the TD50 value, as determined in the chimney test (or rotarod test), by the respective ED50 value, as determined in the MES, scPTZ, or 6 Hz (32 mA or 44 mA) tests (PI = TD50/ED50). The PIs is a measure of the potential therapeutic window of the tested agent.
(§3) All substances were suspended in Tween 80 (1% aqueous solution) and administered i.p. as a single injection at a dose of 10 mL/kg. On each day of experimentation, fresh solutions were prepared. The results are summarized in Table S1 (screening data) and Table 2 (ED50, TD50, and PI values, see Section 3 Results and Discussion).
(§4) The detailed in vivo procedures are described elsewhere: the maximal electroshock seizure test (MES), the subcutaneous pentylenetetrazole seizure test (scPTZ), the 6 Hz psychomotor seizure model (32 mA and 44 mA), and the chimney test.
(§5) The basic animal seizure models such as the MES, 6 Hz (32 mA or 44 mA), and the scPTZ are still a standard in the discovery and development of new ASDs. In vivo screening approaches enable the identification of compounds with unidentified and potentially novel mechanisms of action besides substances with well-established pharmacodynamics. Bearing in mind the aforementioned facts, compounds 45–66 were initially studied in the MES test and in the 6 Hz seizure model (32 mA) after intraperitoneal (i.p.) administration at a screening dose of 100 mg/kg in mice at a time point of 0.5 h (the screening group consisted of four mice, the results obtained are summarized in Table S1). It should be stressed that the MES test is an experimental model of human tonic–clonic epilepsy as well as partial convulsions with or without secondary generalization, the 6 Hz model (32 mA) corresponds to human focal epilepsy, whereas the scPTZ test relates to human generalized absence or myoclonic seizures.
(§6) We also established the median toxic doses (TD50) in the chimney test 0.5 h post i.p. administration of these compounds. Both the aforementioned parameters enabled the calculation of the protective indexes (PIs).

[4] = tested on: MES-induced seizures in mice; assay: Maximal electroshock seizure (MES) test; type: in vivo; details: for protection in MES screening / responders at 100 mg/kg: 100 mg/kg i.p., 0.5 h; for protection in MES screening: four mice; for responders at 100 mg/kg / ED50: Mus musculus, ip; for responders at 100 mg/kg: read-out: MES screening: number of mice protected/number of mice tested (converted); for ED50: mice, pretreatment time 0.5 h, (95% confidence limits)
Description: as §1, §2, §3, §4, §5, §6

[5] = tested on: scPTZ-induced seizures in mice; assay: Subcutaneous pentylenetetrazole (scPTZ) seizure test; type: in vivo; details: 100 mg/kg i.p., 0.5 h
Description: as §1, §2, §3, §4, §5

[6] = tested on: MES-induced seizures in mice; details: i.p., pretreatment 0.5 h (LEV 1.0 h); cited from earlier work
[7] = tested on: 6 Hz (44 mA) seizures in mice; details: i.p., pretreatment 0.5 h; cited from earlier work
mice [8] = details: i.p., acute neurological deficit, cited from earlier work
TRPV1 (VR1) (h) [9] = biological target: T1, TRPV1 (VR1) (h) (Homo sapiens, UniProt Q8NER1); assay: TRPV1 (VR1) (h) antagonist effect functional assay; type: cell-based; details: human recombinant CHO cells, read-out: % Inhibition of control agonist response, TRPV1 (antagonist effect)
T1 construct: host or cells: CHO
Description: (§7) Binding/functional studies were carried out commercially in Eurofins Laboratories (Poitiers, France) and Eurofins Panlabs Discovery Services Taiwan, Ltd. (New Taipei City, Taiwan) using testing procedures that were reported previously (for details see Table S2).
(§8) Table S2. Radioligand binding and functional assays. […]
Assays were performed commercially in Eurofins Laboratories (Poitiers, France) or Eurofins Panlabs Discovery Services Taiwan, Ltd. (New Taipei City, Taiwan).
Table S3. In vitro TRPV1 channel antagonist activity for compounds 45–66 (concentration of 100 µM). […]
Cmpd % Inhibition of control Cmpd % Inhibition of control agonist responsea agonist responsea
*Source: human recombinant CHO cells. a Results showing activity higher than 50% are considered to represent […]
variability of the sign al around the control level. Assays were performed commercially in Eurofins Laboratories

[10] = Chimney test (acute neurological deficit); details: mouse, in vivo, ip, mice
Description: as §2, §3, §4
We also established the median toxic doses (TD50) in the chimney test 0.5 h post i.p. administration of these compounds. […]

[11] = biological target: T2, Calcium Cav1.2 channels (dihydropyridine site) (Homo sapiens, UniProt Q13936); assay: Calcium Cav1.2 channel binding (dihydropyridine site, antagonist radioligand); details: 10 µM; human recombinant HEK-293 cell; read-out: % Inhibition of Control Specific Binding, Cav1.2 (dihydropyridine site)
T2 construct: host or cells: HEK-293

[12] = biological target: T3, Cav1.2 (h) calcium ion channel (Homo sapiens, UniProt Q13936); assay: Cav1.2 (h) calcium ion channel cell-based antagonist calcium flux assay; details: HEK293, human recombinant HEK-293 cell, read-out: % Inhibition of control agonist response, Cav1.2 calcium flux
T3 construct: Eurofins
Description: as §7, §8
TRPV1 (VR1) (h) (antagonist effect)
Cav1.2 (L-type) (h) calcium ion channel cell-based antagonist calcium flux assay
Assays were performed commercially in Eurofins Laboratories (Poitiers, France) or Eurofins Panlabs Discovery
Services Taiwan, Ltd. (New Taipei City, Taiwan). […]

hepatoma HepG2 cell line = assay: Hepatotoxicity, HepG2 viability (MTS); type: cell-based; details: 72 h treatment
Description: Figure 7 The effect of 53, 60, and 62, cytostatic drug doxorubicin (DX) and the mitochondrial toxin CCCP on the hepatoma HepG2 cell line viability after 72 h of incubation at 37 °C, 5% CO2. The data were analyzed with one-way ANOVA, followed by Bonferroni’s Comparison Test (Graph Pad Prism 8.0.1 software, San Diego, CA, USA)): ** p < 0.01, **** p < 0.0001 vs. negative control (DMSO 1% in growth media).

Na+ channel (site 2) = Na+ channel (site 2) radioligand binding; details: 10 µM; rat cerebral cortex
[13] = Metabolic stability in human liver microsomes (HLMs)
TRPV1 (VR1) (h) [14] = biological target: T1, TRPV1 (VR1) (h); assay: TRPV1 (VR1) (h) antagonist effect functional assay; type: cell-based; details: human recombinant CHO cells
recombinant human CYP2C9 = biological target: T4, recombinant human CYP2C9 (Homo sapiens, UniProt P11712); assay: CYP2C9 P450-Glo luminescent assay; type: in vitro ADME
T4 construct: purchased Promega (Madison, WI, USA)
Description: The risk of potential DDIs was predicted with use of luminescent CYP3A4, 2D6, and 2C9 P450-Glo assays (Figure 6). […] However, such an effect was also observed in our previous studies for other pyrrolidine-2,5-dione derivatives. […] However, the potential risk of DDI of 60 was still assessed as very low, and was compared to the selective CYP2C9 inhibitor sulfaphenazole (Figure 6C).
The data were analyzed with one-way ANOVA, followed by Bonferroni’s Multiple Comparison Post Test (Graph Pad Prism 8.0.1 software, San Diego, CA, USA)): * p < 0.05, ** p < 0.01, *** p < 0.001 **** p < 0.0001. The compounds were examined in triplicate.

[15] = 100 mg/kg i.p., 0.5 h, read-out: 6 Hz (32 mA) screening: number of mice protected/number of mice tested (converted)
[16] = 100 mg/kg i.p., 0.5 h, four mice, read-out: protection in 6 Hz (32 mA) screening

T1 sequence (Q8NER1 whole entry): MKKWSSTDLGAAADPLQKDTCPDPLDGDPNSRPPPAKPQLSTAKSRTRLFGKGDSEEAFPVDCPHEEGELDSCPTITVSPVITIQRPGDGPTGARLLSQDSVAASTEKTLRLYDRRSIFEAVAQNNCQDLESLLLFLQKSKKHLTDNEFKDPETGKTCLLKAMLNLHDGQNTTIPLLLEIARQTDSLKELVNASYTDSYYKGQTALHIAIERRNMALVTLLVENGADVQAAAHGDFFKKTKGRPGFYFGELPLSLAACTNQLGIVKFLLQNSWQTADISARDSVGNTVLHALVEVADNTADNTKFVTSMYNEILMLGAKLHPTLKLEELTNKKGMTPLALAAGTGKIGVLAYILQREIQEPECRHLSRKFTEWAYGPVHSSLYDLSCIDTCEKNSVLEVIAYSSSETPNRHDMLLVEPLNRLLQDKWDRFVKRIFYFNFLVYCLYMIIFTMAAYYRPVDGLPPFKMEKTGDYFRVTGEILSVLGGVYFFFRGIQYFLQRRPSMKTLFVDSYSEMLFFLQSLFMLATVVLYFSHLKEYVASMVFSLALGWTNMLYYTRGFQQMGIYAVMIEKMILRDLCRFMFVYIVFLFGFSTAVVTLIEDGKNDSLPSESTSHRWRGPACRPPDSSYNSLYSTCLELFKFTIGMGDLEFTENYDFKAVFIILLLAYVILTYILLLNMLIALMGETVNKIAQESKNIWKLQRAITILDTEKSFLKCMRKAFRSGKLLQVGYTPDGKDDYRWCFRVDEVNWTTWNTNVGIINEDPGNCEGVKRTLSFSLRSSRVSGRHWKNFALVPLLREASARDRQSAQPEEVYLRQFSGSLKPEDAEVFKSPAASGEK
T4 sequence (P11712 whole entry): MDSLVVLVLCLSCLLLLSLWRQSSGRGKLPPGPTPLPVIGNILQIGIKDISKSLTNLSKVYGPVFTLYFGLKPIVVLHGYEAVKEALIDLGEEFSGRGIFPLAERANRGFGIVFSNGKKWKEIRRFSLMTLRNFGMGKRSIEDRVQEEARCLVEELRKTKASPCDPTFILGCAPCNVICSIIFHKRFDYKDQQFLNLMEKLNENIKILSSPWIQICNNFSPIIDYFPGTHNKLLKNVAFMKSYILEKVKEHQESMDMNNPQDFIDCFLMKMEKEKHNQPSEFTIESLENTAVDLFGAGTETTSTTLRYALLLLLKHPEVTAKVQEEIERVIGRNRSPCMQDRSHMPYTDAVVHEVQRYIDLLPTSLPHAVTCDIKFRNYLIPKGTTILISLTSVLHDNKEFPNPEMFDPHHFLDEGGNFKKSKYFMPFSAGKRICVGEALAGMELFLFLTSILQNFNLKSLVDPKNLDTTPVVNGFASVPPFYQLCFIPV

## COc1cc(CNC(=O)CCCC/C=C/C(C)C)ccc1O [capsaicin]
Mice [1]; i.p., capsaicin 5 mg/kg
  effect on rectal (core body) temperature, given alone: produced a significant drop in the rectal temperature

## CCCC(CCC)C(=O)O [VPA, Valproic acid]
[2]
  ED50 6 Hz (32 mA): 130.6 (117.6−145.2) mg/kg

## CC(C)(C)c1ccc(NC(=O)N2CCN(c3ncccc3Cl)CC2)cc1 [BCTC, N-(4-Tertiarybutylphenyl)-4-(3-Chloropyridin-2-Yl)Tetrahydropyrazine-1(2H)-Carbox-Amide, reference compound]
[3]; 100 mg/kg i.p., 0.5 h, four mice
  protection in 6 Hz (32 mA) screening: ineffective
[3]; [15]
  responders at 100 mg/kg: 0%
[4]
  protection in MES screening: ineffective
  responders at 100 mg/kg: 0%
[5]
  scPTZ screening: number of mice protected/number of mice tested: 0/4
[5]; four mice
  protection in scPTZ screening: ineffective
Mice [1]; i.p. 15 min before capsaicin 5 mg/kg
  effect on capsaicin-induced hypothermia (co-administration): prevented the capsaicin-evoked decrease in body temperature

## COC[C@@H](NC(C)=O)C(=O)NCc1ccccc1 [LCS, Lacosamide]
[6]
  ED50 MES: 9.2 (8.5−10.0) mg/kg
[7]
  ED50 6 Hz (44 mA): 6.9 (5.4–8.6) mg/kg
[2]
  ED50 6 Hz (32 mA): 5.3 (3.5−7.8) mg/kg

## CC[C@@H](C(N)=O)N1CCCC1=O [LEV, Levetiracetam]
Mice [8]; ref 32
  TD50 (rotarod test): >500 ** mg/kg
Mice [8]; ref 34
  TD50 (rotarod test): >500 ** mg/kg
[6]
  ED50 MES: >500 mg/kg
[7]
  ED50 6 Hz (44 mA): 204.0 (154.5–269.5) mg/kg

## O=C(C(c1ccccc1)N1C(=O)CCC1=O)N1CCN(c2cccc(C(F)(F)F)c2)CC1 (centres unmarked) [KA-104]
[6]
  ED50 MES: 23.7 (18.4−31.2) mg/kg
[7]
  ED50 6 Hz (44 mA): 73.2 (57.4–93.4) mg/kg
[2]
  ED50 6 Hz (32 mA): 22.4 (17.4−28.8) mg/kg

## CC(=O)NC(C(=O)N1CCN(c2cccc(Cl)c2)CC1)c1ccccc1 (centres unmarked) [Compound 47, N-(2-(4-(3-chlorophenyl)piperazin-1-yl)-2-oxo-1-phenylethyl)acetamide]
[3]; [16]
  responders at 100 mg/kg: 75%
[3]; [15]
  responders at 100 mg/kg: 75%
[3]
  ED50: 88.4 mg/kg
[4]
  responders at 100 mg/kg: 0%
  ED50: > 150 mg/kg
TRPV1 (VR1) (h) [9]
  inhibition at 100 µM: 125%
other
  melting point: 145.5 to 146.7 °C
[10]
  TD50 at 0.5 h: > 500 mg/kg

## CC(=O)NC(C(=O)N1CCN(c2cccc(SC(F)(F)F)c2)CC1)c1ccccc1 (centres unmarked) [Compound 62, N-(2-oxo-1-phenyl-2-(4-(3-((trifluoromethyl)thio)phenyl)piperazin-1-yl)ethyl)acet--amide]
[11]
  inhibition at 10 µM: 12%
[12]
  inhibition at 10 µM: 65%
[3]; [16]
  responders at 100 mg/kg: 100%
[3]; [15]
  responders at 100 mg/kg: 100%
[3]
  ED50: 33.2 mg/kg
Hepatoma HepG2 cell line
  effect on HepG2 cell viability (hepatotoxicity): highest hepatotoxic risk
[4]
  protection in MES screening: 75%
  responders at 100 mg/kg: 75%
  ED50: 76.1 mg/kg
TRPV1 (VR1) (h) [9]
  inhibition at 100 µM: 135%
Na+ channel (site 2)
  % Inhibition of Control Specific Binding, Na+ channel (site 2): 57.0 (10) %
[13]; human, human liver microsomes
  remaining at 2 h: 84%
[13]; metabolites after 120 min incubation with HLMs
  Metabolic Pathway: hydroxylation
TRPV1 (VR1) (h) [14]
  IC50: 10 µM
  Kb: 1.4 µM
Recombinant human CYP2C9
  influence on CYP2C9 activity: weak inhibition effect
[5]
  scPTZ screening: number of mice protected/number of mice tested: 0/4
